Source: patent EP0383591B1, “Use of 5-methyl-1-phenyl-2-(1H)-pyridone in the prevention of fibrotic lesions” (Yamauchi, Shitotomo, priority 1989, dated 1990)
Several values for one entry are separate records, joined by “and”; a condition that tells them apart may be missing. Equal entries are not always repeated. Marks after values point to notes of the source that are not given here.

Tests used:
Acute toxicity (LD50) = conditions: in vivo
Source text: The acute toxicity of the ingredient in the medical composition of the present invention which exerts the anti-fibrotic activity is as shown in the table below.

[1] = system: fibrosis (interstitial hyperplasia); assay: Histopathological examination of the lungs of rats for fibrosis after 5MP2P in the diet; type: in vivo
Procedure: The results of a histopathological examination of the lungs of rats for fibrosis (interstitial hyperplasia) after receiving 300 mg/kg body of 5MP2P in the diet for three months are summarized in Table 2. The individual microscopic readings of the lung are also shown in Table 2, a score schedule of 0, 1, 2 and 3 reflects the degree of fibrosis.
The data in […] reveal a statistically significant reduction in amount of fibrosis in rats receiving 5MP2P as compared to placebo control rats (Group 1). The mean score for the controls (Group 1) was 1.63 + 0.23, and for Group IV (5MP2P, 300 mg/kg body weight daily) was 0.95 + 0.23.
Student's T value was 2.43, with P less than 0.02 (highly significant statistically).

[2] = system: Pulmonary Interstitial Hyperplasia (Fibrosis); assay: Effect of oral 5MP2P upon pulmonary interstitial hyperplasia in dogs; type: in vivo, Beagle dogs
Procedure: The mean score for Group I (Control) was 2.11 + 0.31, and for Group IV, which received 5MP2P, 150 mg/kg per day orally in capsules, was 0.22 + 0.15.

[3] = system: Asbestos-Induced Pulmonary Interstitial Fibrosis; assay: Effect of oral 5MP2P upon asbestos-induced pulmonary interstitial fibrosis in hamsters; type: in vivo; parameters: key to Pulmonary Fibrosis Scores Light Microscope (individual animal) / Pulmonary Fibrosis Scores Electron Microscope (individual animal): 0 = normal tissue; 1 = minimal; 2 = moderate; 3 = severe
Source text: In hamsters, pulmonary fibrosis induced with crysotile asbestos was removed following oral 5MP2P (cf. Table 4).
The novel role of 5MP2P in the therapeutic repair of fibrotic lung tissue featuring removal of fibrotic lesions, and concomitant regeneration of normal lung tissue has been observed in experimental asbestosis by histopathological examination of lung tissue specimens under the light microscope, and electron microscopy (Table 4).
This was subsequently confirmed by ashing of lung specimens in a laboratory oven, and then determining the asbestos content.

[4] = system: Pulmonary Interstitial Hyperplasia (Fibrosis); assay: Effect of oral 5MP2P upon pulmonary interstitial hyperplasia in dogs; type: in vivo, Beagle dogs; conditions: for Hyperplasia Scores 0 (number of dogs): 0 = normal tissue; for Hyperplasia Scores 1 (number of dogs): 1 = minimal; for Hyperplasia Scores 2 (number of dogs): 2 = moderate; for Hyperplasia Scores 3 (number of dogs): 3 = severe; for Incidence of Normal Lung / Average Scores (hyperplasia): dogs; for Incidence of Normal Lung: control 0/9; for Average Scores (hyperplasia): score 0-3, control 2.11+0.31
[5] = 300 mg/kg in the diet for three months, 19 animals
[6] = hamsters, Group III: asbestos by inhalation for 5 days, 5MP2P 500 MG/KG/day orally in the diet for two months, beginning two months after exposure

Cc1ccc(=O)n(-c2ccccc2)c1 [5MP2P, 5-Methyl-1-phenyl-2-(1H)-pyridone]
LD50 (Acute toxicity (LD50); ip, Guinea pig): 460 ± 28 mg/kg | LD50 (Acute toxicity (LD50); ip, Mouse): 600 ± 43 mg/kg | LD50 (Acute toxicity (LD50); ip, Rat): 430 ± 29 mg/kg | LD50 (Acute toxicity (LD50); iv, Cat): 40 mg/kg | LD50 (Acute toxicity (LD50); iv, Dog): 200 mg/kg | LD50 (Acute toxicity (LD50); iv, Monkey): 100 mg/kg | LD50 (Acute toxicity (LD50); iv, Mouse): 285 ± 5 mg/kg | LD50 (Acute toxicity (LD50); iv, Rabbit): 280 ± 32 mg/kg | LD50 (Acute toxicity (LD50); po, Cat): 500 mg/kg | LD50 (Acute toxicity (LD50); po, Dog): 300 mg/kg | LD50 (Acute toxicity (LD50); po, Guinea pig): 810 ± 25 mg/kg | LD50 (Acute toxicity (LD50); po, Mouse): 998 mg/kg | LD50 (Acute toxicity (LD50); po, Rat female): 2300 mg/kg | LD50 (Acute toxicity (LD50); po, Rat male): 1300 mg/kg | Lung Connective Tissue Score 0, Total (number of animals) [1, 5]: 5 | Lung Connective Tissue Score 1, Total (number of animals) [1, 5]: 11 | Lung Connective Tissue Score 2, Total (number of animals) [1, 5]: 2 | Lung Connective Tissue Score 3, Total (number of animals) [1, 5]: 1 | Lung Connective Tissue Score, Mean ([1]; Group IV, 300 mg/kg body weight daily in the diet for three months, score schedule 0-3, control mean 1.63, P<0.02, 300 mg/kg): 0.95 ± 0.23 and 0.95 | Hyperplasia Scores 0 (number of dogs) ([2]; 150 MG/KG/day, 9 dogs, 0 = normal tissue): 7 | Hyperplasia Scores 1 (number of dogs) ([2]; 150 MG/KG/day, 9 dogs, 1 = minimal): 2 | Incidence of Normal Lung ([2]; dogs, 150 MG/KG/day oral, control 0/9): 7/9 | recurrence of asbestos-induced fibrosis ([3]; after 5MP2P had been discontinued for two months): did not recur | lung cell-imbedded asbestos fibers ([3]; electron microscope, confirmed by ashing of lung specimens and determining the asbestos content): had been removed | Pulmonary Fibrosis Scores Lung Density, Average ([3]; hamsters, Group III, 500 MG/KG/day in the diet for two months, asbestos without 5MP2P 2.53+0.23, no asbestos 1.00+0.05): 1.17+0.10** | Pulmonary Fibrosis Scores Electron Microscope, Average ([3]; hamsters, Group III, 500 MG/KG/day in the diet for two months, asbestos without 5MP2P 2.75+0.25, no asbestos 0.25+0.25): 0.25+0.25** | Pulmonary Fibrosis Scores Light Microscope, Average ([3]; hamsters, Group III, 500 MG/KG/day in the diet for two months, asbestos without 5MP2P 2.75+0.25, no asbestos 0.50+0.25): 1.00+0.41** | Pulmonary Fibrosis Scores Electron Microscope (individual animal) [3, 6]: 0 (3×) and 1 | Pulmonary Fibrosis Scores Light Microscope (individual animal) [3, 6]: 0 and 2 and 1 (2×) | Pulmonary Fibrosis Scores Lung Density (individual animal) [3, 6]: 0.98 and 1.04 and 1.26 and 1.41 | pulmonary fibrosis induced with crysotile asbestos ([3]; hamsters, oral 5MP2P): removed | Hyperplasia Scores 0 (number of dogs) ([4]; 25 MG/KG/day, 6 dogs): 1 | Hyperplasia Scores 1 (number of dogs) ([4]; 25 MG/KG/day, 6 dogs): 1 | Hyperplasia Scores 2 (number of dogs) ([4]; 25 MG/KG/day, 6 dogs): 4 | Hyperplasia Scores 3 (number of dogs) ([4]; 25 MG/KG/day, 6 dogs): 0 | Hyperplasia Scores 0 (number of dogs) ([4]; 75 MG/KG/day, 8 dogs): 2 | Hyperplasia Scores 1 (number of dogs) ([4]; 75 MG/KG/day, 8 dogs): 2 | Hyperplasia Scores 2 (number of dogs) ([4]; 75 MG/KG/day, 8 dogs): 3 | Hyperplasia Scores 3 (number of dogs) ([4]; 75 MG/KG/day, 8 dogs): 1 | Hyperplasia Scores 2 (number of dogs) ([4]; 150 MG/KG/day, 9 dogs): 0 | Hyperplasia Scores 3 (number of dogs) ([4]; 150 MG/KG/day, 9 dogs): 0 | Incidence of Normal Lung ([4]; 25 MG/KG/day oral): 1/6 | Incidence of Normal Lung ([4]; 75 MG/KG/day oral): 2/8 | Average Scores (hyperplasia) ([4]; Group II, 25 MG/KG/day oral): 1.50+0.34 | Average Scores (hyperplasia) ([4]; Group III, 75 MG/KG/day oral): 1.38+0.38
